Results reported in the supplement of paper PMC10883282.

Tests used:
Assay in all cases: relative viability vs DMSO control (72 h) (fraction); higher = more viable cells
RD-ES = test system: RD-ES
Outline: (§1)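 Sarcoma cell lines were plated in 384 wells to reach 80–90% confluence, treated after 24 h with 2.5 µl of serially diluted compound and held 72 h at 37 °C, 5% CO2. Relative viability was taken as percent growth from ATPLite readings, averaged over up to triplicate wells. The values were rescaled so that 1 marks full and 0 marks none.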

HS729 = test system: HS729
Outline: as §1

RD = test system: RD
Outline: as §1

HT1080 = test system: HT1080
Outline: as §1

SW684 = test system: SW684
Outline: as §1

SW1353 = test system: SW1353
Outline: as §1

KHOS-240S = test system: KHOS-240S
Outline: as §1

SYO-1 = test system: SYO-1
Outline: as §1

KHOS-NP = test system: KHOS-NP
Outline: as §1

SW872 = test system: SW872
Outline: as §1

SK-LMS-1 = test system: SK-LMS-1
Outline: as §1

G401 = test system: G401
Outline: as §1

Cc1ccc(NC(=O)c2ccc(CN3CCN(C)CC3)cc2)cc1Nc1nccc(-c2cccnc2)n1 [Imatinib]
Settings | relative viability
G401, 0.00017 µM | 0.963
G401, 0.00051 µM | 0.988
G401, 0.00152 µM | 0.958
G401, 0.00457 µM | 0.938
G401, 0.01372 µM | 0.956
G401, 0.04115 µM | 0.945
G401, 0.1235 µM | 0.951
G401, 0.3704 µM | 0.946
G401, 1.111 µM | 0.925
G401, 3.333 µM | 0.823
G401, 10 µM | 0.518
HS729, 0.00017 µM | 0.972
HS729, 0.00051 µM | 0.996
HS729, 0.00152 µM | 1.02
HS729, 0.00457 µM | 0.991
HS729, 0.01372 µM | 0.977
HS729, 0.04115 µM | 0.985
HS729, 0.1235 µM | 0.993
HS729, 0.3704 µM | 0.945
HS729, 1.111 µM | 0.917
HS729, 3.333 µM | 0.86
HS729, 10 µM | 0.522
HT1080, 0.00017 µM | 1.06
HT1080, 0.00051 µM | 1
HT1080, 0.00152 µM | 0.989
HT1080, 0.00457 µM | 1.02
HT1080, 0.01372 µM | 1.03
HT1080, 0.04115 µM | 0.987
HT1080, 0.1235 µM | 1.01
HT1080, 0.3704 µM | 0.968
HT1080, 1.111 µM | 0.973
HT1080, 3.333 µM | 0.942
HT1080, 10 µM | 0.643
KHOS-240S, 0.00017 µM | 0.98
KHOS-240S, 0.00051 µM | 0.977
KHOS-240S, 0.00152 µM | 0.9747
KHOS-240S, 0.00457 µM | 0.98
KHOS-240S, 0.01372 µM | 0.97
KHOS-240S, 0.04115 µM | 0.971
KHOS-240S, 0.1235 µM | 0.953
KHOS-240S, 0.3704 µM | 0.929
KHOS-240S, 1.111 µM | 0.895
KHOS-240S, 3.333 µM | 0.794
KHOS-240S, 10 µM | 0.542
KHOS-NP, 0.00017 µM | 1.01
KHOS-NP, 0.00051 µM | 1.001
KHOS-NP, 0.00152 µM | 1.01
KHOS-NP, 0.00457 µM | 1
KHOS-NP, 0.01372 µM | 1.02
KHOS-NP, 0.04115 µM | 0.997
KHOS-NP, 0.1235 µM | 1.03
KHOS-NP, 0.3704 µM | 1.01
KHOS-NP, 1.111 µM | 1.01
KHOS-NP, 3.333 µM | 0.8795
KHOS-NP, 10 µM | 0.609
RD, 0.00017 µM | 0.964
RD, 0.00051 µM | 0.974
RD, 0.00152 µM | 0.952
RD, 0.00457 µM | 0.967
RD, 0.01372 µM | 0.976
RD, 0.04115 µM | 0.983
RD, 0.1235 µM | 0.95
RD, 0.3704 µM | 0.943
RD, 1.111 µM | 1.01
RD, 3.333 µM | 1
RD, 10 µM | 0.596
RD-ES, 0.00017 µM | 0.954
RD-ES, 0.00051 µM | 0.957
RD-ES, 0.00152 µM | 0.969
RD-ES, 0.00457 µM | 0.952
RD-ES, 0.01372 µM | 0.957
RD-ES, 0.04115 µM | 0.961
RD-ES, 0.1235 µM | 0.967
RD-ES, 0.3704 µM | 0.962
RD-ES, 1.111 µM | 0.951
RD-ES, 3.333 µM | 0.923
RD-ES, 10 µM | 0.61
SK-LMS-1, 0.00017 µM | 1.02
SK-LMS-1, 0.00051 µM | 1.02
SK-LMS-1, 0.00152 µM | 1.04
SK-LMS-1, 0.00457 µM | 1.02
SK-LMS-1, 0.01372 µM | 1.06
SK-LMS-1, 0.04115 µM | 1.07
SK-LMS-1, 0.1235 µM | 1.05
SK-LMS-1, 0.3704 µM | 1.08
SK-LMS-1, 1.111 µM | 1.08
SK-LMS-1, 3.333 µM | 1.11
SK-LMS-1, 10 µM | 0.635
SW684, 0.00017 µM | 0.968
SW684, 0.00051 µM | 0.9679
SW684, 0.00152 µM | 0.985
SW684, 0.00457 µM | 1.02
SW684, 0.01372 µM | 0.948
SW684, 0.04115 µM | 0.9868
SW684, 0.1235 µM | 1.01
SW684, 0.3704 µM | 1.02
SW684, 1.111 µM | 1.03
SW684, 3.333 µM | 0.973
SW684, 10 µM | 0.59
SW872, 0.00017 µM | 0.973
SW872, 0.00051 µM | 0.963
SW872, 0.00152 µM | 0.954
SW872, 0.00457 µM | 0.971
SW872, 0.01372 µM | 0.992
SW872, 0.04115 µM | 0.968
SW872, 0.1235 µM | 0.969
SW872, 0.3704 µM | 0.976
SW872, 1.111 µM | 0.982
SW872, 3.333 µM | 0.916
SW872, 10 µM | 0.627
SW1353, 0.00017 µM | 1.01
SW1353, 0.00051 µM | 0.988
SW1353, 0.00152 µM | 0.986
SW1353, 0.00457 µM | 1.04
SW1353, 0.01372 µM | 1.01
SW1353, 0.04115 µM | 1.02
SW1353, 0.1235 µM | 0.991
SW1353, 0.3704 µM | 1
SW1353, 1.111 µM | 1.06
SW1353, 3.333 µM | 1.1
SW1353, 10 µM | 0.762
SYO-1, 0.00017 µM | 0.98
SYO-1, 0.00051 µM | 0.974
SYO-1, 0.00152 µM | 0.965
SYO-1, 0.00457 µM | 0.964
SYO-1, 0.01372 µM | 0.948
SYO-1, 0.04115 µM | 0.907
SYO-1, 0.1235 µM | 0.804
SYO-1, 0.3704 µM | 0.744
SYO-1, 1.111 µM | 0.704
SYO-1, 3.333 µM | 0.63
SYO-1, 10 µM | 0.155
